System: E. coli, Streptococcus sp. and Proteus sp. isolated from the xenic culture
Assay: Antibiotic susceptibility tests (antibiotic discs) with bacterial strains isolated from the xenic culture
Conditions: strains isolated from original xenic culture (E. coli, Streptococcus sp., Proteus sp.)

| Compound | susceptibility tests of the bacterial strains |
| --- | --- |
| neomycin | resistant to most antibiotics, except meropenem, neomycin and rifampicin |
| C[C@@H](O)[C@H]1C(=O)N2C(C(=O)O)=C(S[C@@H]3CN[C@H](C(=O)N(C)C)C3)[C@H](C)[C@H]12 [meropenem] | resistant to most antibiotics, except meropenem, neomycin and rifampicin |

Reference: patent publication US10350281B2 (priority 2012, dated 2019)
